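Tested at 5 concentrations; 48 h exposure; 96-well plates; endpoints linearly interpolated, else capped at highest concentration. GI50 is the concentration that inhibits growth by half. TGI: total growth inhibition.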
What was measured:
Test in all cases: growth of human tumour cells (NCI), 48 h
[1] = tested on: COLO 205 colon
[2] = tested on: HCC-2998 colon
[3] = tested on: MDA-MB-435
[4] = tested on: NCI-H460 lung
[5] = tested on: OVCAR-4 ovarian
[6] = tested on: RPMI-8226 leukemia
[7] = tested on: SK-MEL-5 melanoma
[8] = tested on: T-47D breast
[9] = tested on: U251 CNS
[10] = tested on: LOX IMVI melanoma

SMILES | TGI [1] | TGI [2] | TGI [3] | TGI [4] | TGI [5] | TGI [6] | TGI [7] | TGI [8] | TGI [9] | GI50 [1] | GI50 [2] | GI50 [10] | TGI [10] | GI50 [3] | GI50 [4] | GI50 [5] | GI50 [7] | GI50 [8] | GI50 [9] | GI50 [6]
NS(=O)(=O)c1ccc(NCc2cnc3ccccc3n2)cc1 | > 100 µM | > 100 µM | > 100 µM | > 100 µM | > 100 µM | > 100 µM | > 100 µM | > 100 µM | > 100 µM | – | – | – | – | – | – | – | – | – | – | –
O=c1c2c(c3ccccc3n1-c1ccccc1)NC(=S)NC2c1ccc(Cl)cc1 (configuration not stated) | 29.1 µM | 16.3 µM | 31 µM | 6.47 µM | > 100 µM | – | 10.5 µM | > 100 µM | 24.8 µM | 8.09 µM | 2.2 µM | 2.59 µM | 33.4 µM | 3.27 µM | 1.16 µM | 5.66 µM | 2.42 µM | 20 µM | 2.04 µM | –
O=C(NNc1ccc(F)cc1)C1CCC(CNS(=O)(=O)c2ccc(Cl)c(Cl)c2)CC1 (configuration not stated) | > 50 µM | – | 35.1 µM | > 50 µM | 47 µM | 24.2 µM | 33.1 µM | – | > 50 µM | 14.4 µM | – | 2.08 µM | 14.4 µM | 2.01 µM | 3.18 µM | 9.02 µM | 10.8 µM | – | 10.3 µM | 3.36 µM
Cn1cc(-c2csc(-c3cn(CCCCN4CCCCC4)c4ccc(F)cc34)n2)c2cccnc21 | – | 3.08 µM | 2.84 µM | 3.52 µM | 2.94 µM | – | – | 41.4 µM | – | – | 1.59 µM | – | – | 1.52 µM | 1.9 µM | 1.59 µM | – | 15.7 µM | – | –
COc1cc(/C=C2\Oc3cc(OCCCN4CCCC4)ccc3C2=O)cc(OC)c1 | 8.3 µM | 15 µM | 22.4 µM | 12.3 µM | 19.8 µM | – | 4.6 µM | 4.51 µM | 7.71 µM | 2.58 µM | 3.91 µM | 1.6 µM | 3.05 µM | 10.5 µM | 3.43 µM | 7.16 µM | 2 µM | 1.93 µM | 2.38 µM | –
C[C@]12CC[C@H]3[C@@H](CCC4=CC(=O)CC[C@@]43C)[C@@H]1CC[C@@H]2C(=O)COS(=O)(=O)c1ccc(Br)cc1 | 53.1 µM | 8.74 µM | 32.8 µM | 22.2 µM | > 51.2 µM | 12 µM | 47.9 µM | 37.5 µM | 26.2 µM | – | – | – | – | – | – | – | – | – | – | –
Cc1ccc(NC(=O)CC/C(CC(=O)C(C)(C)C)=N/NC(=O)C[N+](C)(C)C)cc1C | > 100 µM | > 100 µM | – | > 100 µM | > 100 µM | – | > 100 µM | – | > 100 µM | – | – | – | > 100 µM | – | – | – | – | – | – | –
COc1ccc(CNC(C)C(=O)O)cc1 (configuration not stated) | > 100 µM | – | > 100 µM | > 100 µM | > 100 µM | > 100 µM | > 100 µM | > 100 µM | > 100 µM | – | – | – | > 100 µM | – | – | – | – | – | – | –
COC(=O)NN1C(C)=C(C(=O)OC)C2(C#N)C(C(=O)OC)=C(C)N(NC(=O)OC)C12N (configuration not stated) | > 100 µM | > 100 µM | – | > 100 µM | > 100 µM | > 100 µM | – | – | > 100 µM | – | – | – | > 100 µM | – | – | – | – | – | – | –
CC1(C)CCCC(C)(C2CCC3(C)C2C(O)CC2C4(C)CCC(O)C(C)(C)C4C(O)CC23C)O1 (configuration not stated) | 24.4 µM | 27.9 µM | 30.3 µM | 25.3 µM | 26 µM | – | 17.6 µM | 28.9 µM | 34.4 µM | – | – | – | > 100 µM | – | – | – | – | – | – | –
COC(=O)C[CH2][Ge]([CH3])([CH3])[S]c1ccccc1 | 69.9 µM | > 100 µM | – | 30.6 µM | > 100 µM | 58.1 µM | > 100 µM | – | 44.1 µM | 30.4 µM | – | 12.5 µM | 26.2 µM | – | 16.9 µM | 25.3 µM | 32.6 µM | – | 17.7 µM | 22.4 µM
CO[C@]12C=C/C(=C(/C(=O)OCc3cccnc3)C(=O)CCCCCCCC[C@@]3(OC)C=C/C(=C(/C(=O)OCc4cccnc4)C(=O)CCCCCCCC1)O3)O2 | 5.06 µM | 1.84 µM | – | 3.16 µM | – | 5.87 µM | 1.64 µM | > 50 µM | 8.58 µM | 1.49 µM | 0.979 µM | 0.585 µM | 1.6 µM | – | 1.27 µM | – | 0.856 µM | 2.21 µM | 1.66 µM | 1.09 µM
CC(C)=CCC1=C(OCC(=O)O)C(=O)c2ccccc2C1=O | > 100 µM | – | 29 µM | > 100 µM | 99.1 µM | > 100 µM | 41.4 µM | > 100 µM | > 100 µM | – | – | – | > 100 µM | – | – | – | – | – | – | –
NC(=O)c1ncn(CCN2CCN(C(=O)NCCCCCCNC(=O)N3CCN(CCn4cnc(C(N)=O)c4N)CC3)CC2)c1N | > 100 µM | > 100 µM | – | > 100 µM | > 100 µM | > 100 µM | > 100 µM | – | > 100 µM | – | – | – | > 100 µM | – | – | – | – | – | – | –
COc1ccc2c(c1)[n+]([O-])c(-c1ccc(Br)cc1)c(N)[n+]2[O-] | 32.9 µM | – | – | > 100 µM | > 100 µM | – | 36.5 µM | – | > 100 µM | – | – | – | – | – | – | – | – | – | – | –
COC(=O)C1=Cc2cc(OC)c(OC)cc2[C@H](c2ccc(OC)c(OC)c2)C1C(=O)OC (some centres not stated) | > 100 µM | > 100 µM | – | > 100 µM | > 100 µM | > 100 µM | > 100 µM | – | > 100 µM | – | – | – | > 100 µM | – | – | – | – | – | – | –
Cc1cc(=O)n2c3c(c4c(cc13)c(CO)cc(=O)n4C)OC2 | > 100 µM | 44.8 µM | – | > 100 µM | > 100 µM | > 100 µM | 75.3 µM | – | > 100 µM | – | – | – | 21.1 µM | – | – | – | – | – | – | –
N.N.O=P([O-])([O-])CN(CCN(CP(=O)([O-])[O-])CP(=O)([O-])[O-])CP(=O)([O-])[O-].[Pt+2] | > 100 µM | > 100 µM | – | > 100 µM | > 100 µM | > 100 µM | > 100 µM | – | > 100 µM | > 100 µM | > 100 µM | > 100 µM | > 100 µM | – | > 100 µM | > 100 µM | > 100 µM | – | > 100 µM | > 100 µM

From PubChem BioAssay (NCI)
